Laboratory results published in patent US4200642A, “Spiro-oxazolidindiones” (Pfizer Inc., priority 1978, dated 1980).
Where “and” joins values, the source holds several entries; their conditions need not be identical. Equal values may be shown once.

Legend:
aldose reductase = target: T1, aldose reductase (Bos taurus, UniProt P16116); test: inhibition of aldose reductase enzyme activity (partially purified enzyme from calf lens); format: biochemical; conditions: / indicates results of duplicate tests; for inhibition at 1 µM: 10^-6 M
T1 construct: partially purified aldose reductase enzyme obtained from calf lens; from tissue; host or cells: calf lens
Method: Spiro-oxazolidindiones prepared as described in the previous examples were tested for their ability to reduce or inhibit aldose reductase enzyme activity, following the procedure described in U.S. Pat. No. 3,821,383 and based on the procedure of Hayman et al., Journal of Biological Chemistry, 240, 877 (1965). The substrate employed was partially purified aldose reductase enzyme obtained from calf lens. The results obtained with each compound at a concentration of 10^-6 M are expressed as percent inhibition of enzyme activity.

[1] = tested on: sorbitol accumulation in the sciatic nerve of streptozotocinized (i.e., diabetic) rats; test: inhibition of sorbitol accumulation in the sciatic nerve of streptozotocinized (diabetic) rats; format: in vivo; conditions: measured at 27 hours, vs untreated, values below 20 not always significant; for % Inhibition at mg/kg Dosage 1.5: 1.5 mg/kg orally at 4, 8 and 24 hours after streptozotocin
Method: Spiro-oxazolidindiones prepared as described in the above examples were tested for their ability to reduce or inhibit sorbitol accumulation in the sciatic nerve of streptozotocinized (i.e., diabetic) rats by the procedure essentially described in U.S. Pat. No. 3,821,383. In the present study, the amount of sorbitol accumulation in the sciatic nerves was measured 27 hours after induction of diabetes. The compounds were administered orally at the dose levels indicated at 4, 8 and 24 hours following the administration of streptozotocin. The results obtained in this manner are presented below in terms of percent inhibition afforded by the test compound as compared to the case where no compound was administered (i.e., the untreated animal where sorbitol levels normally rise from approximately […]. tissue to as high as 400 mM/g. tissue in the 27-hour test period). In this test values below 20 are not always experimentally and statistically significant.

Structure (SMILES): O=C1NC(=O)C2(CCSc3ccc(F)cc32)O1 (stereo not drawn) [Example 31, 6-Fluoro-spiro[4H-2,3-dihydrobenzothiopyran(4,5')oxazolidin]-2',4'-dione]
- inhibition at 1 µM (aldose reductase): 61%

Structure (SMILES): O=C1NC(=O)C2(CCSc3ccc(Cl)cc32)O1 (stereo not drawn) [Example 34, 6-Chloro-spiro[4H-2,3-dihydrobenzothiopyran(4,5')oxazolidin]-2',4'-dione]
- % Inhibition at 10^-6 M (aldose reductase): 70% and 100%
- % Inhibition at mg/kg Dosage 1.5 [1]: 14%

Structure (SMILES): O=C1NC(=O)C2(CCOc3ccc(Cl)cc32)O1 (stereo not drawn) [Example 3, 6-Chloro-spiro[4H-2,3-dihydrobenzopyran(4,5')oxazolidin]-2',4'-dione]
- inhibition at 1 µM (aldose reductase): 86%
- % Inhibition at 10^-6 M (aldose reductase): 68%
- % Inhibition at mg/kg Dosage 1.5 [1]: 28%

Structure (SMILES): O=C1NC(=O)C2(CCOc3ccc(Br)cc32)O1 (stereo not drawn) [Example 29, 6-Bromo-spiro[4H-2,3-dihydrobenzopyran(4,5')oxazolidin]-2',4'-dione]
- inhibition at 1 µM (aldose reductase): 100%
- % Inhibition at 10^-6 M (aldose reductase): 87%
- % Inhibition at mg/kg Dosage 1.5 [1]: 35%

Structure (SMILES): Cc1cc(Cl)cc2c1OCCC21OC(=O)NC1=O (stereo not drawn) [Example 33, 6-Chloro-8-methyl-spiro[4H-2,3-dihydrobenzopyran(4,5')oxazolidin]-2',4'-dione]
- inhibition at 1 µM (aldose reductase): 81%
- % Inhibition at 10^-6 M (aldose reductase): 99%
- % Inhibition at mg/kg Dosage 1.5 [1]: 33%

Structure (SMILES): O=C1NC(=O)C2(CCOc3c(Cl)cc(Cl)cc32)O1 (stereo not drawn) [Example 32, 6,8-Dichloro-spiro[4H-2,3-dihydrobenzopyran(4,5')oxazolidin]-2',4'-dione]
- inhibition at 1 µM (aldose reductase): 100%
- % Inhibition at mg/kg Dosage 1.5 [1]: 44%

Structure (SMILES): O=C1NC(=O)C2(CCOc3ccc(Cl)cc32)O1 (single isomer, unassigned; (-)) [Example 35, (-)-6-Chloro-spiro[4H-2,3-dihydrobenzopyran(4,5')oxazolidin]-2',4'-dione]
- inhibition at 1 µM (aldose reductase): 96%
- % Inhibition at mg/kg Dosage 1.5 [1]: 41%
- % Inhibition at mg/kg Dosage 5 ([1]; 5 mg/kg orally at 4, 8 and 24 hours after streptozotocin): 67%
- % Inhibition at mg/kg Dosage 15 ([1]; 15 mg/kg orally at 4, 8 and 24 hours after streptozotocin): 88%

Structure (SMILES): O=C1NC(=O)C2(CCSc3ccccc32)O1 (stereo not drawn) [Example 30, Spiro[4H-2,3-dihydrobenzothiopyran(4,5')oxazolidin]-2',4'-dione]
- inhibition at 1 µM (aldose reductase): 42%

Structure (SMILES): O=C1NC(=O)C2(CCOc3ccc(F)cc32)O1 (stereo not drawn) [Example 28, 6-Fluoro-spiro[4H-2,3-dihydrobenzopyran(4,5')oxazolidin]-2',4'-dione]
- inhibition at 1 µM (aldose reductase): 65%
- % Inhibition at mg/kg Dosage 1.5 [1]: 8%
